Key:
[1] = test system: TAA-induced model hepatic fibrosis in mice; assay: Treatment of TAA-induced model hepatic fibrosis in mice by oral (intragastric) administration; hydroxyproline test and alanine aminotransferase test; format: in vivo, ICR mice; details: hepatic tissue, 20mg/kg intragastrically in corn oil, twice a week, 4 weeks, TAA 200mg/kg, mean value ± standard deviation; for hydroxyproline: TAA model group 356±43; for alanine aminotransferase: TAA model group 372±24
Text: (§1) The following example is to be regarded as a case to illustrate specific details of this invention. It should not be viewed as to limit the application scope of this invention. Application of Indole-3-carbinol, Diindolylmethane and Derivatives thereof Disclosed in This Invention in the Treatment of Modeled Hepatic Fibrosis: • 1. Injecting the phosphate buffer solution of thioacetamide (TTA) into the abdominal cavity of ICR mice so that TTA models of hepatic fibrosis can be established. • 2. Dissolving indole-3-carbinol, diindolylmethane and derivative thereof in corn oil and treating hepatic fibrosis through intragastric administration at the same time of the establishment of TTA models of hepatic fibrosis. • 3. Administering TAA, indole-3-carbinol, diindolylmethane and derivatives thereof twice a week for four weeks in succession; killing the mice and taking out the liver for hydroxyproline test and alanine aminotransferase (ALT) test. Application of Water Injection of Indole-3-carbinol, Diindolylmethane and Derivatives thereof Disclosed in This Invention in the Treatment of Modeled Hepatic Fibrosis: • 1. Injecting the phosphate buffer solution of thioacetamide (TTA) into the abdominal cavity of ICR mice so that TTA models of hepatic fibrosis can be established. • 2. Dissolving indole-3-carbinol, diindolylmethane and derivative thereof in water and treating hepatic fibrosis through intraperitoneal administration at the same time of the establishment of TTA models of hepatic fibrosis. • 3. Administering TAA, indole-3-carbinol, diindolylmethane and derivatives thereof twice a week for four weeks in succession; killing the mice and taking out the liver for hydroxyproline test and alanine aminotransferase (ALT) test. Dissolving I3C, DIM and methoxyl-DIM in corn oil so that 2.0mg/ml stock solution can be obtained for later use; establishing TAA models of hepatic fibrosis in mice with the method commonly adopted in the related literature, namely, picking 40 mice weighing 16-18g and randomly dividing them into four groups: TAA model group, I3C treatment group, DIM treatment group and 5-methoxyl-DIM treatment group; injecting TAA phosphate buffer solution (200mg/kg) into the abdominal cavity of the mice, twice a week; starting the treatment at the same time of the model establishment: administering the correlated drugs intragastrically at the rate of 20mg/kg to the mice in I3C treatment group, DIM treatment group and 5-methoxyl-DIM treatment group, twice a week; in contrast, the mice in the TAA model group are given only corn oil at the same dosage and frequency. Killing all mice of the four groups 4 weeks later and taking out the pathologically changed hepatic tissue for hydroxyproline test and alanine aminotransferase test. • (1) Hydroxyproline test Preparing the tissue homogenate of the pathologically changed liver and extracting the supernatant thereof; testing the concentration of hydroxyproline by means of alkaline hydrolysis. • (2) Results of alanine aminotransferase test Testing the serum of mice so that the concentration of alanine aminotransferase can be determined. When hepatic fibrosis is in process, what accumulate in liver are mainly collagen fibers. Since hydroxyproline is specific to collagen fibers, its concentration to some extent reflects the degree of hepatic fibrosis. As is shown in table 1, the oral administration of I3C, DIM and derivatives thereof can effectively relieve hepatic fibrosis as the concentration of hydroxyproline in the treatment groups is significant lower than that of the TAA model group. […]

[2] = test system: TAA-induced model hepatic fibrosis in mice; assay: Treatment of TAA-induced model hepatic fibrosis in mice by intraperitoneal administration of water injection; hydroxyproline test and alanine aminotransferase test; format: in vivo, ICR mice; details: 20mg/kg intraperitoneally, water injection with cyclodextrin in physiological saline, twice a week, 4 weeks, mean value ± standard deviation; for alanine aminotransferase: TAA model group 392±31; for hydroxyproline: hepatic tissue, TAA model group 363±32
Text: as §1, with “determined.” for “determined. When hepatic fibrosis is in process, what accumulate in liver are mainly collagen fibers. Since hydroxyproline is specific to collagen fibers, its concentration to some extent reflects the degree of hepatic fibrosis. As is shown in table 1, the oral administration of I3C, DIM and derivatives thereof can effectively relieve hepatic fibrosis as the concentration of hydroxyproline in the treatment groups is significant lower than that of the TAA model group.”

## COc1ccc2[nH]cc(Cc3c[nH]c4ccc(OC)cc34)c2c1 [5-methoxyl-DIM]
[1]
  hydroxyproline: 194±17 µg/g liver
  alanine aminotransferase: 236±12 U/mgprot
[2]
  alanine aminotransferase: 226±19 U/mgprot
  hydroxyproline: 203±14 µg/g liver

## c1ccc2c(Cc3c[nH]c4ccccc34)c[nH]c2c1 [DIM, 3,3'-Diindolylmethane]
[1]
  hydroxyproline: 176±21 µg/g liver
  alanine aminotransferase: 204±37 U/mgprot
[2]
  alanine aminotransferase: 187±29 U/mgprot
  hydroxyproline: 195±24 µg/g liver

## OCc1c[nH]c2ccccc12 [I3 C, indole-3-carbinol]
[1]
  hydroxyproline: 237±11 µg/g liver
  alanine aminotransferase: 245±32 U/mgprot
[2]
  alanine aminotransferase: 239±21 U/mgprot
  hydroxyproline: 253±21 µg/g liver

Source: patent EP2606887A1, “DIINDOLYLMETHANE, PRECURSOR AND DERIVATIVES THEREOF IN PREPARATION OF MEDICAMENTS FOR TREATING LIVER DISEASES” (Nanjing University, priority 2010, dated 2012)
